According to PubChem BioAssay AID1259407 (Chemical Carcinogenesis Research Information System (CCRIS), 2018):
The source made the active and inactive calls. How the calls were made is not given here.

Tested on: CCRIS mutagenicity, Ames/micronucleus/aberration tests
Experiment: CCRIS mutagenicity studies
[1] = Test System: AMES SALMONELLA TYPHIMURIUM, Strain/Indicator: TA98, Metabolic Activation: NONE, Method: PREINCUBATION
[2] = Test System: AMES SALMONELLA TYPHIMURIUM, Strain/Indicator: TA100, Metabolic Activation: NONE, Method: PREINCUBATION

## NNc1nncc2cccnc12
[1]
  mutagenic call: active; positive
Test System: AMES SALMONELLA TYPHIMURIUM, Strain/Indicator: TA98, Metabolic Activation: RAT, LIVER, S-9, PCB, Method: PREINCUBATION
  mutagenic call: active; positive
[2]
  mutagenic call: active; positive
Test System: AMES SALMONELLA TYPHIMURIUM, Strain/Indicator: TA100, Metabolic Activation: RAT, LIVER, S-9, PCB, Method: PREINCUBATION
  mutagenic call: active; positive

## CC(=O)c1c(O)cc(O)c2c1C(=O)c1cc(O)cc(O)c1C2=O
Test System: AMES SALMONELLA TYPHIMURIUM, Strain/Indicator: TA98, Metabolic Activation: NONE, Method: STANDARD PLATE
  mutagenic call: inactive; negative
Test System: AMES SALMONELLA TYPHIMURIUM, Strain/Indicator: TA98, Metabolic Activation: RAT, LIVER, S-9, AROCLOR 1254, Method: STANDARD PLATE
  mutagenic call: inactive; negative
Test System: AMES SALMONELLA TYPHIMURIUM, Strain/Indicator: TA100, Metabolic Activation: NONE, Method: STANDARD PLATE
  mutagenic call: inactive; negative
Test System: AMES SALMONELLA TYPHIMURIUM, Strain/Indicator: TA100, Metabolic Activation: RAT, LIVER, S-9, AROCLOR 1254, Method: STANDARD PLATE
  mutagenic call: inactive; negative
Test System: AMES SALMONELLA TYPHIMURIUM, Strain/Indicator: TA1537, Metabolic Activation: RAT, LIVER, S-9, AROCLOR 1254, Method: STANDARD PLATE
  mutagenic call: inactive; negative

## NCc1ccc(CN)cc1
End Point: IN VITRO CHROMOSOMAL ABERRATIONS, Test System: CHL CELLS, Metabolic Activation: NONE
  mutagenic call: inactive; negative
End Point: IN VITRO CHROMOSOMAL ABERRATIONS, Test System: CHL CELLS, Metabolic Activation: RAT, LIVER, S-9, SODIUM PHENOBARBITAL AND 5,6-BENZOFLAVONE
  mutagenic call: inactive; negative
[1]
  mutagenic call: inactive; negative
Test System: AMES SALMONELLA TYPHIMURIUM, Strain/Indicator: TA98, Metabolic Activation: RAT, LIVER, S-9, PHENOBARBITAL AND BETA-NAPHTHOFLAVONE, Method: PREINCUBATION
  mutagenic call: inactive; negative
[2]
  mutagenic call: inactive; negative
Test System: AMES SALMONELLA TYPHIMURIUM, Strain/Indicator: TA100, Metabolic Activation: RAT, LIVER, S-9, PHENOBARBITAL AND BETA-NAPHTHOFLAVONE, Method: PREINCUBATION
  mutagenic call: inactive; negative
Test System: AMES SALMONELLA TYPHIMURIUM, Strain/Indicator: TA102, Metabolic Activation: NONE, Method: PREINCUBATION
  mutagenic call: inactive; negative
Test System: AMES SALMONELLA TYPHIMURIUM, Strain/Indicator: TA102, Metabolic Activation: RAT, LIVER, S-9, PHENOBARBITAL AND BETA-NAPHTHOFLAVONE, Method: PREINCUBATION
  mutagenic call: inactive; negative
Test System: AMES SALMONELLA TYPHIMURIUM, Strain/Indicator: TA1535, Metabolic Activation: NONE, Method: PREINCUBATION
  mutagenic call: inactive; negative
Test System: AMES SALMONELLA TYPHIMURIUM, Strain/Indicator: TA1535, Metabolic Activation: RAT, LIVER, S-9, PHENOBARBITAL AND BETA-NAPHTHOFLAVONE, Method: PREINCUBATION
  mutagenic call: inactive; negative
Test System: AMES SALMONELLA TYPHIMURIUM, Strain/Indicator: TA1537, Metabolic Activation: NONE, Method: PREINCUBATION
  mutagenic call: inactive; negative
Test System: AMES SALMONELLA TYPHIMURIUM, Strain/Indicator: TA1537, Metabolic Activation: RAT, LIVER, S-9, PHENOBARBITAL AND BETA-NAPHTHOFLAVONE, Method: PREINCUBATION
  mutagenic call: inactive; negative
Test System: E. COLI, Strain/Indicator: WP2UVRA/PKM101, Metabolic Activation: NONE, Method: PREINCUBATION
  mutagenic call: inactive; negative
Test System: E. COLI, Strain/Indicator: WP2UVRA/PKM101, Metabolic Activation: RAT, LIVER, S-9, PHENOBARBITAL AND BETA-NAPHTHOFLAVONE, Method: PREINCUBATION
  mutagenic call: inactive; negative
Test System: E. COLI, Strain/Indicator: WP2UVRA/PKM101, Metabolic Activation: RAT, LIVER, S-9, SODIUM PHENOBARBITAL AND 5,6-BENZOFLAVONE, Method: PREINCUBATION
  mutagenic call: inactive; negative
Test System: E. COLI, Strain/Indicator: WP2UVRA, Metabolic Activation: NONE, Method: PREINCUBATION
  mutagenic call: inactive; negative
Test System: E. COLI, Strain/Indicator: WP2UVRA, Metabolic Activation: RAT, LIVER, S-9, PHENOBARBITAL AND BETA-NAPHTHOFLAVONE, Method: PREINCUBATION
  mutagenic call: inactive; negative

## Oc1ccc2[nH]c3ccccc3c2c1
Test System: CHINESE HAMSTER OVARY, Strain/Indicator: CHO-K1-BH4 (HGPRT)/6-THIOGUANINE, Metabolic Activation: RAT, LIVER, S-9, AROCLOR (4%)
  mutagenic call: active; positive

## C=CCc1cc(OC)c2c(c1)OCO2
Test System: UDS RAT HEPATOCYTES, Strain/Indicator: THY INCORP, Metabolic Activation: NONE, Method: LIQUID SCINTILLATION COUNTING
  mutagenic call: inactive; negative

## O=[N+]([O-])c1ccc(-c2csc(Nc3ccccc3)n2)o1
Test System: E. COLI WP2, Strain/Indicator: WP2, Metabolic Activation: NONE, Method: SPOT
  mutagenic call: active; positive
